# Assay results taken from the NIST ThermoML archive (doi:10.1021/je7004038).
# ± gives the expanded uncertainty stated by the source.
# Conditions: Crystal; visual observation
smiles,measurement,value
O=[N+]([O-])/N=C1\NCCN1Cc1ccc(Cl)nc1 [imidacloprid],Normal melting temperature,144.00 ± 0.68 °C
